Measured values from patent publication US4330558A, “Pharmaceutical composition and method for treating peripheral orthostatic hypotension” (Sumitomo Chemical Company, Limited, priority 1980, dated 1982).
Read-outs that look alike come from different tables or passages of the source.

Columns and labels:
patients with FAP [1] = assay type: in vivo, human; details: 600 mg oral
Description: (2) Oral administration test of DL-threo-DOPS
The test was carried out by administering orally 600 mg of DL-threo-DOPS to nine persons (4-normal persons and 5 FAP patients). Plasma norepinephrine levels and blood pressure were determined.
In the graphs A to C of FIG. 2, the abscissa axes indicate time (hrs.) and the ordinate axes indicate plasma norepinephrine level (pg/ml), change in maximum blood pressure (mmHg) and minimum blood pressure (mmHg), respectively. The results are expressed as mean±S.E.

[2] = system: patients suffering from various kinds of orthostatic hypotension; experiment: Effect of intravenous DL-threo-DOPS on blood pressure in patients suffering from various kinds of orthostatic hypotension; assay type: in vivo, human; details: i.v. drip infusion
Description: Under the same condition as in FAP, DL-threo-DOPS was administered intravenously to patients suffering from familial diabetes mellitus, aortitis syndrome, idiopathic orthostatic hypotension, acute pan-dysautonomia and ectopic pineal tumor, respectively. Changes in pulse rate and blood pressure were determined. In the graphs A to D of FIGS. 4, 5, 6, 7 and 8, the abscissa axes indicate time (min.) and the ordinate axes indicate change in pulse rate, maximum blood pressure (mmHg) and minimum blood pressure (mmHg), and drip infusion rate of DL-threo-DOPS (mg/min.), respectively.

patients with FAP [3] = experiment: Intravenous drip infusion test of DL-threo-DOPS in normal persons and FAP patients (pulse rate, blood pressure); assay type: in vivo, human; details: 200 mg i.v. drip infusion over 2 hours
Description: (1) Intravenous drip infusion test of DL-threo-DOPS The test was carried out by administering 200 mg of DL-threo-DOPS in 400 ml of isotonic sodium chloride solution over 2 hours to four persons (2 normal persons and 2 FAP patients) by intravenous drip infusion (1.7 mg/min.). Changes in pulse rate and blood pressure were determined. In the graphs A to D of FIG. 1, the abscissa axes indicate time (min.) and the ordinate axes indicate changes in pulse rate, maximum blood pressure (mmHg) and minimum blood pressure (mmHg), and drip infusion rate of DL-threo-DOPS (mg/min.), respectively. In the graphs A to C, the symbol o indicates normal subjects (2 persons) and .cndot., FAP patients (2 persons).

FAP patients = experiment: Long term oral administration of DL-threo-DOPS in FAP patients (simple blind test, 4 weeks); assay type: in vivo, human; details: 1.2 g/day oral
Description: (3) Long term oral administration of DL-threo-DOPS The clinical trial was carried out according to a simple blind test procedure. […] The patients refrained from taking any drug for one week before administration of DL-threo-DOPS. After 4 weeks of administration period of DL-threo-DOPS,the patients were given placebos containing lactose. […] In the graphs A to F of FIG. […] The results are expressed as mean±S.E.

orthostatic hypotension = experiment: Clinical effect of threo-DOPS on blood pressure, summary of the pharmacological tests; assay type: in vivo, human
mice = experiment: Acute toxicity, LD50 in mice; assay type: in vivo
Source text: (§1) Toxicity of threo-DOPS is extremely low. LD50 value in mice is more than 10 g/kg (p.o.) and about 10 g/kg (i.p.).

[4] = Acute toxicity, LD50 in mice; assay type: in vivo; details: mouse, in vivo
Source text: as §1

[5] = Clinical observation of side effects; assay type: in vivo, human
[6] = in a certain case; cited from earlier work
[7] = Comparison of effectiveness of L-isomer and DL-isomer in the pharmacological tests; assay type: in vivo; details: L-isomer vs DL-isomer
Source text: In general, threo-DOPS exists as optical isomers and there are the L- and D-isomers as well as the racemic DL-isomer. The term "threo-DOPS" used herein means DL-threo-DOPS and L-threo-DOPS.

[8] = system: aromatic L-amino acid decarboxylase; details: in the living body; cited from earlier work
[9] = summary of the pharmacological tests

N[C@H](C(=O)O)[C@H](O)c1ccc(O)c(O)c1 (relative stereo) [DL-threo-DOPS, DL-threo-3,4-dihydroxyphenylserine]
change in plasma norepinephrine level (patients with FAP [1]; FAP patients (FIG. 2)): almost parallel with that of blood pressure
time at which plasma norepinephrine level was restored to the normal level after oral administration (patients with FAP [1]; FAP patients (FIG. 2)): 5 h
absorption after oral administration (patients with FAP [1]; inferred from the results): absorbed in the intestine
conversion by aromatic L-amino acid decarboxylase after oral administration (patients with FAP [1]; inferred from the results): converted to (-) norepinephrine
hypertensive action (patients with FAP [1]; FAP patients (5)): gradual and sustained hypertensive action
time of peak of hypertensive action after oral administration (patients with FAP [1]; FAP patients (5)): 5 h
change in blood pressure (patients with FAP [1]; normal subjects (4)): no significant change in blood pressure was observed
pressor response ([2]; acute pan-dysautonomia, person): Pressor response was observed
pressor response ([2]; aortitis syndrome, person): Pressor response was observed
selectivity for type of orthostatic hypotension ([2]; conclusion from cases (1) to (5)): selective effect on the "peripheral" type of orthostatic hypotension
pressor response ([2]; ectopic pineal tumor, person): Pressor response was not observed
pressor response ([2]; familial diabetes mellitus, patient A (asymptomatic orthostatic hypotension)): showed pressor response
pressor response ([2]; idiopathic orthostatic hypotension, person): Pressor response was observed
blood pressure response (patients with FAP [3]; FAP patients (2)): a sensitive hypertensive response was observed
time course of the response (patients with FAP [3]; FAP patients (2)): gradual and sustained
change in blood pressure (patients with FAP [3]; normal persons (2)): did not change either pulse rate or blood pressure
change in pulse rate (patients with FAP [3]; normal persons (2)): did not change either pulse rate or blood pressure
activity of daily living (FAP patients): restored
dizziness and giddiness caused by orthostatic hypotension (FAP patients): mitigated
side effect (FAP patients): No side effect was observed
blood pressure at 11 a.m. and 1 p.m. (FAP patients; three patients suffering from orthostatic hypotension, 3 and 5 hours after administration): a significant rise of blood pressure was observed

N[C@H](C(=O)O)[C@H](O)c1ccc(O)c(O)c1 (relative stereo) [threo-DOPS, threo-3,4-dihydroxyphenylserine]
effect on orthostatic hypotension (orthostatic hypotension; FAP as model of dysautonomia syndrome): effective on orthostatic hypotension, inducing substantial and sustained elevation of blood pressure
effect on blood pressure of normal subjects and of patients suffering from central orthostatic hypotension (orthostatic hypotension; [9]): does not have a significant effect on blood pressure
effect on peripheral orthostatic hypotension (orthostatic hypotension; [9]): selective effect on "peripheral" orthostatic hypotension
toxicity (mice): extremely low
LD50 ([4]; ip): ~10000 mg/kg
LD50 ([4]; po): > 10000 mg/kg
side effect observed clinically [5]: no side effect is observed clinically

NC(C(=O)O)C(O)c1ccc(O)c(O)c1 (centres unmarked) [DOPS]
effect on blood pressure [6]: anti-hypertensive action

N[C@H](C(=O)O)[C@H](O)c1ccc(O)c(O)c1 [L-threo-DOPS, L-threo-3,4-dihydroxyphenylserine]
amount for the same effect relative to the DL-isomer [7]: same effect as the DL-isomer in one half the amount
effectiveness relative to the DL-isomer [7]: about twice as effective as the DL-isomer
conversion by aromatic L-amino acid decarboxylase [8]: converted to (-) norepinephrine
